Reference: US11426361B2, “Eye drops for treatment of irritation not due to infection” (Resdevco Research and Development Co. Ltd., priority 2017, dated 2022)

System: human corneal epithelial cells (HCEC cell line)
Experiment: Example 5: expression of barrier genes (Involucrin, Occludin, Filaggrin, Cadherin-1) at mRNA level by Q-PCR
Assay type: cell-based
Settings: three hours
Protocol: An experiment was performed to investigate the effect in vitro of a solution containing glycerol on human corneal epithelial cells, in particular, on the expression of barrier genes Involucrin, Occludin, Filaggrin, and Cadherin-1.
Immortalized human corneal epithelial cells (HCEC cell line) cultured in DMEM/F12 with 5% FBS and 10 ng/ml human epidermal growth factor (Invitrogen—Gibco). The cells were treated for three hours with one of the following three compositions: (a) an aqueous solution of glycerol (0.27% w/v); (b) 20 μg/ml Polyinosinic:polycytidylic acid (p(I:C), an activator of TLR3 to induce inflammation; and (c) a combination of the two previous compositions.
The expression of the barrier genes was determined at the mRNA level by use of quantitative “real-time” PCR (Q-PCR). Q-PCR was performed on an ABI Prism 7000 sequence detection system (Applied Biosystems, Foster City, Calif.) using the 5′ nuclease assay. Total RNA was isolated using TRIzol (Invitrogen) and 3 μg of total RNA were reverse-transcribed into cDNA by using 15 U of AMV reverse transcriptase (Promega, Madison, Wis., USA) and 0.025 μg/μl random primers (Promega). PCR amplification was performed by using the TaqMan primers and probes. As internal controls, transcripts of cyclophilin A (PPIA) were determined.

| Compound | effect on barrier-impairing actions of p(I:C) (barrier gene expression) (co-incubation with glycerol 0.27% during p(I:C) 20 μg/ml challenge) | expressions of Involucrin, Occludin, Filaggrin, and Cadherin-1 (p(I:C) 20 μg/ml alone) |
| --- | --- | --- |
| OCC(O)CO [glycerol] | significantly prevented the barrier-impairing actions of the TLR3 agonist | – |
| Polyinosinic:polycytidylic acid [p(I:C)] | – | markedly decreased |
